Source: US11590158B2, “Pharmaceutical compositions of lipoic acid choline ester salts and methods of treatment using same” (Novartis AG, priority 2020, dated 2023)
Entries after “also recorded” stand apart in the source; their conditions may differ. Where a name gives a salt, the structure may show the parent alone. Read-outs that look alike come from different tables or passages of the source.

What was measured:
[1] = test system: Staphylococcus aureus, Pseudomonas aeruginosa, Escherichia coli, Candida albicans, and Aspergillus brasiliensis; experiment: Preservative efficacy test, overall outcome against USP criteria; assay type: cell-based; details: formulations with cyclodextrin
Procedure: The testing was carried out using the following procedure: Five different challenge organisms were evaluated (Staphylococcus aureus, Pseudomonas aeruginosa, Escherichia coli, Candida albicans, and Aspergillus brasiliensis) were evaluated for each test formulation, and inoculated to a concentration of 10^6 colony forming units per ml (CFU/ml). The microbial suspension was incubated and sampled at 7, 14, 21, and 28 days. At the time of sampling, a sample was diluted 10-fold into tryptase soy broth medium, and 100 μl plated in growth agar plates to count survivors. The survivor count was used to determine log reduction. The preservative efficacy test criteria for multidose pharmaceutical compositions under US Pharmacopoeia standards are as follows. [table]

[2] = Hygroscopicity (exposure to RH, DVS); assay type: physicochemical; details: for Hygroscopicity / Hygroscopicity, water uptake: DVS; for Hygroscopicity: >70% RH; for Hygroscopicity, water uptake: until 70% RH
[3] = Hygroscopicity (exposure to RH, DVS); assay type: physicochemical; details: for Hygroscopicity: solid salt, ambient conditions; for Hygroscopicity upon exposure: 58% RH for one day
Text: It is deliquescent upon exposure to 58% RH for one day. In DVS measurement, LACE chloride absorbs 18.6% moisture from 0% RH to 50% RH. The DVS isotherm is irreversible. It is amorphous at ambient but crystalline under 0% RH by Cryo-XRPD.

[4] = Equilibration of LACE chloride in solvents (solubility test); assay type: physicochemical; details: 100 mg in 1 mL, 25° C. for 7 days
Text: The mixture was equilibrated for 7 days, with visual observations at days 1, 2, and 7. If a slurry resulted, it was filtered and clear solutions were either cooled or evaporated.

[5] = Stability in aqueous solutions or suspensions; assay type: physicochemical
Text: At pH 4.7 buffer solution about 4% degradation is observed.

[6] = Stability in organic solutions or suspensions; assay type: physicochemical; details: 40° C. for 1 week
Photostability = assay type: physicochemical
[7] = 1 week
Procedure: (§1) LACE salts were dissolved in each of the following excipients: 0.01% benzalkonium chloride, 20 mM acetate buffer, 20 mM citrate buffer, 1% Na-carboxymethyl cellulose, 1% hydroxypropylmethyl cellulose and 0.01% Na-ethylene diamine tetraacetic acid.

rabbit eye = experiment: Acute rabbit ocular tolerability study; assay type: in vivo; details: rabbit left eye dosed 6 times, one drop about 30 microliter, about 1 hour apart
Procedure: A number of excipients were explored to determine which excipients would reduce the formation of associative species. Acute rabbit ocular tolerability studies were performed to test the ocular tolerability of LACE tosylate with various excipients. The study design involved three male rabbits per arm. The rabbits' left eye was dosed 6 times with one drop each time, about 1 hour apart, administering about 30 microliter per drop. The right eye was not dosed and served as a control.

[8] = pH 4.7 buffer solution, 40° C. for 1 week
[9] = other solvents (EtOAC, acetone, IPA and THF)
[10] = 5% solutions in aqueous excipients (0.01% BAC, 20 mM acetate, 20 mM citrate, 1% Na-CMC, 1% HPMC, 0.01% Na-EDTA), 40° C. for 2 weeks
[11] = same excipients, 40° C. for 2 weeks
[12] = same excipients, 40° C./75% RH for 2 weeks

Procedure for Excipient compatibility: as §1

## N=C(N)NC(=N)N [Biguanide]
[1]
  efficacy as a preservative in LACE tosylate formulations: not found to be efficacious

## C[N+](C)(C)CCOC(=O)CCCCC1CCSS1.Cc1ccc(S(=O)(=O)[O-])cc1 (stereo not shown) [Form A, lipoic acid choline ester tosylate]
[2]
  Hygroscopicity: deliquescent >70% RH
  Hygroscopicity, water uptake: 0.64% water uptake until

## C[N+](C)(C)CCOC(=O)CCCCC1CCSS1.Cc1ccc(S(=O)(=O)[O-])cc1 (stereo not shown) [Form B, lipoic acid choline ester tosylate]
[2]
  Hygroscopicity: deliquescent >70% RH
  Hygroscopicity, water uptake: 0.55% water uptake until

## C[N+](C)(C)CCOC(=O)CCCCC1CCSS1.[Br-] (stereo not shown) [LACE bromide]
[3]
  Hygroscopicity: hygroscopic

## C[N+](C)(C)CCOC(=O)CCCC[C@@H]1CCSS1.[Cl-] [LACE-Cl, lipoic acid choline ester chloride]
[4]; 2-Me-THF
  Comments (equilibration in solvent): sticky solid
[4]; 2 Methyl 2 butanone
  Comments (equilibration in solvent): Clear solution after 7 days
[4]; ACN
  Comments (equilibration in solvent): Clear solution after 7 days
[4]; Acetic acid
  Comments (equilibration in solvent): almost dissolved
[4]; Acetone
  Comments (equilibration in solvent): initial suspension, with particles stuck on wall
[4]; Anisole
  Comments (equilibration in solvent): sticky solid
[4]; Benzyl alcohol
  Comments (equilibration in solvent): Clear solution after 7 days
[4]; Chloroform
  Comments (equilibration in solvent): clear solution that yielded an oil after
[4]; Cumene
  Comments (equilibration in solvent): undissolved solid after 7 days
[4]; Cyclohexane
  Comments (equilibration in solvent): undissolved solid after 7 days
[4]; DCM
  Comments (equilibration in solvent): Clear solution after 7 days
[4]; Diethyl ether
  Comments (equilibration in solvent): undissolved solid after 7 days
[4]; Dioxane
  Comments (equilibration in solvent): initial suspension, with particles stuck on wall
[4]; EtOAc
  Comments (equilibration in solvent): suspension
[4]; EtOH
  Comments (equilibration in solvent): Clear solution after 7 days
[4]; Ethyl formate
  Comments (equilibration in solvent): suspension
[4]; IPAc
  Comments (equilibration in solvent): undissolved solid after 7 days
[4]; MEK
  Comments (equilibration in solvent): initial suspension, with particles stuck on wall
[4]; MTBE
  Comments (equilibration in solvent): initial suspension, with particles stuck on wall
[4]; MeOH
  Comments (equilibration in solvent): Clear solution after 7 days
[4]; Nitromethane
  Comments (equilibration in solvent): Clear solution after 7 days
[4]; Petroleum ether
  Comments (equilibration in solvent): undissolved solid after 7 days
[4]; Propylene glycol
  Comments (equilibration in solvent): Clear solution after 7 days
[4]; Pyridine
  Comments (equilibration in solvent): almost dissolved
[4]; THF
  Comments (equilibration in solvent): initial suspension turning sticky
[4]; Toluene
  Comments (equilibration in solvent): sticky solid
[4]; Water
  Comments (equilibration in solvent): Clear solution after 7 days
[4]; Xylene
  Comments (equilibration in solvent): undissolved solid after 7 days
[5]; [8]
  degradation: about 4%
[6]; methanol and ethanol
  degradation: complete degradation
[6]; [9]
  degradation: severe degradation
Photostability; amber vial
  photostability, degradation: ~5%
  photostability, physical form: becomes sticky
Photostability; clear vial
  photostability, degradation: severe degradation and color change
  photostability, physical form: becomes sticky
[3]
  Hygroscopicity upon exposure: deliquescent
  Hygroscopicity: highly hygroscopic
[3]; from 0% RH to 50% RH
  moisture absorbed in DVS: 18.6%
Solid state stability; 40° C. 75% RH for 1 week
  degradation: approximately 7%
  physical form: becomes sticky mass
Solid state stability; 40° C. for 1 week
  degradation: approximately 7%
  solid state stability / physical form: becomes sticky mass
Solid state stability
  behaviour on handling / exposure at ambient conditions: not suitable for handling under normal conditions
Excipient compatibility; [10]
  degradation: about 5%
Excipient compatibility; in Na-CMC, alanine and histidine, 25° C. for 1 week
  degradation: 2-3%
Excipient compatibility; [11]
  degradation: higher degradation
Excipient compatibility; [12]
  degradation: high-severe degradation
Excipient compatibility; with HPMC, 25° C. for 1 week
  degradation: ~8%
Excipient compatibility; with HPβCD, 25° C. for 1 week
  degradation: 3.35%

## C[N+](C)(C)CCOC(=O)CCCCC1CCSS1.[I-] (stereo not shown) [LACE-I, lipoic acid choline ester iodide]
[5]; [8]
  degradation: about 4%
[6]; methanol and ethanol
  degradation: complete degradation
[6]; [9]
  degradation: severe degradation
Photostability; amber vial
  photostability: stable
  photostability, physical form: remains the same
Photostability; clear vial
  photostability, degradation: severe degradation and color change
  photostability, physical form: remains unchanged
[3]
  Hygroscopicity upon exposure: non-hygroscopic
[3]; DVS
  Hygroscopicity by DVS: non-hygroscopic
Solid state stability; 40° C. 75% RH for 1 week
  physical form: form remains the same
Solid state stability; 40° C. for 1 week
  solid state stability / physical form: stable
Solid state stability
  behaviour on handling / exposure at ambient conditions: changes color; also recorded: discoloration and possibly slow degradation
Excipient compatibility; [10]
  degradation: about 5%
Excipient compatibility; [11]
  degradation: higher degradation
Excipient compatibility; [12]
  degradation: high-severe degradation

## C[N+](C)(C)CCOC(=O)CCCCC1CCSS1 (stereo not shown) [LACE-OBs, lipoic acid choline ester besylate]
[5]; 1 week
  degradation: 10-99%
[5]; 1 week, pH 4.7
  degradation: about 4%
[6]; methanol and ethanol
  degradation: complete degradation
[6]; [9]
  degradation: severe degradation
Photostability; amber vial
  photostability: stable
  photostability, physical form: remains the same
Photostability; clear vial
  photostability, degradation: severe degradation and color change
  photostability, physical form: decrease in crystallinity
[3]
  Hygroscopicity upon exposure: deliquescent
  Hygroscopicity: hygroscopic
[7]
  degradation: < 2%
[2]; 58% RH up to 6 hours
  Hygroscopicity upon exposure: non hygroscopic
[2]; DVS from 50% RH to 90% RH
  Hygroscopicity by DVS: deliquescent
Solid state stability; 40° C. 75% RH for 1 week
  physical form: become sticky
Solid state stability; 40° C. for 1 week
  solid state stability / physical form: stable

## C[N+](C)(C)CCOC(=O)CCCCC1CCSS1 (stereo not shown) [LACE-OTs, lipoic acid choline ester tosylate]
[6]; methanol and ethanol
  degradation: complete degradation
[6]; [9]
  degradation: severe degradation
Photostability; amber vial
  photostability: stable
  photostability, physical form: remains the same
Photostability; clear vial
  photostability, degradation: severe degradation and color change
  photostability, physical form: some amorphous content
[3]
  Hygroscopicity upon exposure: non-hygroscopic
[7]
  degradation: < 2%
[7]; 5 %
  degradation: 1-3%
[2]; up to 60% RH
  moisture absorbed in DVS: less than 2%
Solid state stability; 40° C. 75% RH for 1 week
  physical form: become sticky
Solid state stability; 40° C. for 1 week
  solid state stability / physical form: stable
Solid state stability
  behaviour on handling / exposure at ambient conditions: without any degradation

## CC(O)CO (stereo not shown) [Propylene Glycol]
Rabbit eye
  Tolerated: No

## lipoic acid choline ester besylate [LACE-OBs]
Solid state stability
  behaviour on handling / exposure at ambient conditions: without any degradation
